Results taken from ChEMBL document CHEMBL1201862, “PubChem BioAssay data set” (2004).
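Each compound was tested at five concentrations against cells in 96-well plates for 48 hours. The concentration for 50% growth inhibition is given as GI50.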 The source made the active and inactive calls. No stated cut-off is given here; in the data, active = GI50 up to about 1.1 µM and inactive = higher.

Experiments:
Experiment in all cases: NCI tumour cell line growth inhibition, 48 h
SR = system: SR
CAKI-1 = system: CAKI-1
HCC 2998 = system: HCC 2998
LXFL 529 = system: LXFL 529
ACHN = system: ACHN
HOP-92 = system: HOP-92
SNB-78 = system: SNB-78
TK-10 = system: TK-10
DMS-114 = system: DMS-114
SK-MEL-2 = system: SK-MEL-2
M19-MEL = system: M19-MEL
NCI-H460 = system: NCI-H460
KM-20L2 = system: KM-20L2
M14 = system: M14
DLD-1 = system: DLD-1
RPMI-8226 = system: RPMI-8226

Measured: GI50

C=CCCN1CCc2c([nH]c3ccccc23)C1C(=O)O (configuration not stated)
inactive: SR > 100 µM | CAKI-1 > 100 µM | HCC 2998 > 100 µM | LXFL 529 > 100 µM | ACHN > 100 µM | HOP-92 > 100 µM | SNB-78 > 100 µM | TK-10 > 100 µM | DMS-114 63.4 µM | SK-MEL-2 > 100 µM | M19-MEL > 100 µM | NCI-H460 > 100 µM | KM-20L2 > 100 µM | M14 > 100 µM | DLD-1 > 100 µM

O=c1nc(NC(c2ccccc2)(c2ccccc2)c2ccccc2)ccn1CCCl
inactive: SR 20.3 µM | HCC 2998 14.9 µM | LXFL 529 13.5 µM | RPMI-8226 17.1 µM | ACHN 27.8 µM | HOP-92 14.2 µM | SNB-78 29.2 µM | TK-10 27.7 µM | DMS-114 14.5 µM | SK-MEL-2 15.8 µM | M19-MEL 18.8 µM | NCI-H460 19.3 µM | KM-20L2 16.4 µM | DLD-1 35.3 µM

COc1ccc(CCn2cncn2)cc1
inactive: SR > 100 µM | HCC 2998 > 100 µM | LXFL 529 > 100 µM | ACHN > 100 µM | HOP-92 > 100 µM | SNB-78 > 100 µM | TK-10 > 100 µM | DMS-114 > 100 µM | M19-MEL > 100 µM | NCI-H460 > 100 µM | KM-20L2 > 100 µM | M14 > 100 µM | DLD-1 > 100 µM
